Data published in patent publication US20100074896A1, “ANTAGONISTS OF PGE2 EP3 RECEPTORS” (The Johns Hopkins University, priority 2006, published 2010).

How the values were obtained:
EP1 receptor = target: T1, EP1 receptor (Mus musculus, UniProt P35375); conditions: read-out: Affinity for the EP1 receptor; cited from earlier work
T1 sequence (P35375 1-405): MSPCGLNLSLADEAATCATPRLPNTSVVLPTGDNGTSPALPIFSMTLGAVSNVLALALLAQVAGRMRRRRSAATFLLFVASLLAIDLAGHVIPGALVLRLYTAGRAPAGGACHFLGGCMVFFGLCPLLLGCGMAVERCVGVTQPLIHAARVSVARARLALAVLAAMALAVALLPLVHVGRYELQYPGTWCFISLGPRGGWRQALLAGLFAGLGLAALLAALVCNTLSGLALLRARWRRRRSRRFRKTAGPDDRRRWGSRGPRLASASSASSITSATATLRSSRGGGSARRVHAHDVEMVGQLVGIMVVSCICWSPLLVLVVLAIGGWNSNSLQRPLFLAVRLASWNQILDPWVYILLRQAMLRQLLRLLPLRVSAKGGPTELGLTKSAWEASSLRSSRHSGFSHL

EP3 receptor = target: T2, EP3 receptor (Mus musculus, UniProt P30557); conditions: cited from earlier work; for Ki: read-out: Affinity for the EP3 receptor
T2 sequence (P30557 1-365): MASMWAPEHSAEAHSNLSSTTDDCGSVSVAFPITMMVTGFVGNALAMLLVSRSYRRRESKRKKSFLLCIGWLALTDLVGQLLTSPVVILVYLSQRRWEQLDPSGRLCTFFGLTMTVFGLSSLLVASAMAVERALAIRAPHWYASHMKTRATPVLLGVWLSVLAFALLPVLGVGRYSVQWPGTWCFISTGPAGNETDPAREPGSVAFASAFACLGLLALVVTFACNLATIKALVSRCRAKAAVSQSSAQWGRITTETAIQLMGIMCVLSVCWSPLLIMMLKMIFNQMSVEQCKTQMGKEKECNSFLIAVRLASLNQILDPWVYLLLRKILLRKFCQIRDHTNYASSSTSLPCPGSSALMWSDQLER

[1] = tested on: mouse model of middle cerebral artery (MCA) occlusion; experiment: MCAO (90 min) and reperfusion, hemispheric infarct volume; assay type: in vivo; conditions: 90 min occlusion, 4 days reperfusion
Description: (§1) Mice were anesthetized with 3.0% halothane and maintained with 1.0-1.5% continuous flow of halothane in oxygen-enriched air. Then the mice were mounted on a stereotactic frame and injected with 0.2 μl of different doses of ONO-AE-248 (0.5 nmol, 2.5 nmol, or 5.0 nmol) or vehicle (DMSO) via a 1μl Hamilton syringe (Reno, Nev.) into the right lateral ventricle as described previously (Ahmad et al., 2006a). After the injection, the needle was retracted slowly, the hole was plugged with bone wax, and the wound was sutured. Mice were then either transferred to another setup for the MCAO procedure or left in place for NMDA injection (see below).
During the MCAO procedure (FIG. 1, Illustration A), mouse rectal temperature was monitored and maintained at 37.0±0.5° C. by a heating pad, and anesthesia was maintained with continuous flow of halothane in oxygen-enriched air via a nose cone. Relative CBF was monitored with laser-Doppler flowmetry (Moor Instruments, Devon, England) by a flexible fiber optic probe affixed to the skull over the parietal cortex supplied by the MCA (2 mm posterior and 6 mm lateral to the bregma). MCAO was carried out under aseptic conditions with a silicone-coated nylon monofilament as described previously (Shah et al., 2006). […]
Four days after MCAO surgery, mice (n=9/dose) were deeply anesthetized, and their brains were harvested and sliced coronally into five 2-mm-thick sections. […] The area of infarcted brain, identified by the lack of TTC staining, was measured on the rostral and caudal surfaces of each slice and numerically integrated across the thickness of the slice to obtain an estimate of infarct volume in each slice (SigmaScan Pro, SPSS, Port Richmond, Calif., USA). Volumes from all five slices were summed to calculate total infarct volume over the entire hemisphere and expressed as a percentage of the volume of the contralateral structure. […] The corrected infarct volume was calculated as: volume of contralateral hemisphere−(volume of ipsilateral hemisphere−volume of infarct).

mice [2] = experiment: Analysis of physiological parameters (arterial blood pH, PaO2, PaCO2, MABP) around MCAO; assay type: in vivo, mouse; conditions: before ischemia, during ischemia, during reperfusion; all doses
Description: Measurement of physiological parameters was carried out in a group of mice separate from that used to assess infarct volume (FIG. 1, Illustration B). Arterial blood samples collected via femoral catheter were analyzed for pH, PaO2, and PaCO2 before the occlusion, during occlusion, and 1 h after the occlusion. MABP was measured at the same time points by a pressure transducer connected to the femoral catheter.

mice [3] = experiment: Core body temperature by intra-abdominal radiofrequency probe; assay type: in vivo, mouse; conditions: mice without MCAO, room temperature, 4-day experiment
Description: A third cohort of mice was implanted with intra-abdominal radiofrequency probes [IPTT-200, Bio. Medic. Data System (BMDS), Seaford, Del.] 7 days before injection of ONO-AE-248 (n=5) or vehicle (n=5). Core temperature was sampled every 10 min for the first 90 min after injection, and then once daily for 4 days at room temperature via receivers (The DAS-5002 Notebook System™; BMDS). This telemetry system minimizes stress and allows temperature control and monitoring in freely moving animals.

[4] = tested on: NMDA-induced brain lesion in C57B1/6 WT mice; experiment: NMDA-induced brain lesion volume (excitotoxicity); assay type: in vivo, mouse; conditions: 15 nmol NMDA intrastriatal, 48 h
Description: as §1
To investigate the effect of NMDA toxicity in mice lacking the EP3 receptor, WT (n=7) and EP3-/- (n=8) mice were injected in the right striatum with 15 nmol NMDA or vehicle in a volume of 0.3 μl 20 min after being injected with ONO-AE-248, as reported earlier (Ahmad et al., 2006a). After injection, the hole was blocked and the wound sutured, as described above. After the surgical procedures, the animals were transferred to a temperature-regulated chamber to recover from anesthesia. Throughout the stereotactic procedures the rectal temperature of mice was monitored and maintained at 37.0±0.5° C.
At 48 h after NMDA injection, weight and rectal temperature of each mouse was recorded. Then, mice were transcardially perfused with phosphate-buffered saline, followed by 4% paraformaldehyde (pH 7.2), under deep anesthesia. Brains were immediately removed, post-fixed in paraformaldehyde overnight, cryoprotected in sucrose (30%) for 3 days, and frozen in 2-methyl butane (pre-cooled over dry ice). Brain sections cut on a cryostat were collected on microscope slides and stained with Cresyl Violet to estimate lesion volume. Images of the brain sections were taken and analyzed with SigmaScan Pro 5.0 software (Systat Software Inc., Richmond, Calif.) as described previously (Ahmad et al., 2006b).

EP3 = conditions: CHO cell lines; cited from earlier work
rats = conditions: single ICV injection, 20 nmol; cited from earlier work

Row | SMILES | Ki (EP1 receptor) [nM] | Ki (EP3 receptor) [nM] | Infarct volume increase as compared with the vehicle-treated group ([1]; 0.5 nmol ICV before MCAO, not statistically significant) [%] | Infarct volume increase as compared with the vehicle-treated group ([1]; 2.5 nmol ICV before MCAO, statistically significant) [%] | Infarct volume increase as compared with the vehicle-treated group ([1]; 5.0 nmol ICV before MCAO, statistically significant) [%] | MABP versus vehicle group (mice [2]) | PaCO2 versus vehicle group (mice [2]) | PaO2 versus vehicle group (mice [2]) | pH (arterial blood) versus vehicle group (mice [2]) | Effect on core body temperature (mice [3]) | Effect on NMDA-induced toxicity ([4]; 0.5 nmol ICV pretreatment) | Effect on NMDA-induced lesion size ([4]; 2.5 nmol ICV pretreatment, p<0.02) | Effect on NMDA-induced lesion size ([4]; 5 nmol ICV pretreatment, p<0.001) | Specificity for EP3 over EP1 (EP3 receptor; EP3 versus EP1) [times] | Effect on forskolin-induced increase in cAMP (EP3) | Effect on body temperature (rats)
1 | CS(=O)(=O)NC(=O)CCC/C=C\C[C@H]1C(=O)C[C@@H](O)[C@@H]1/C=C/[C@@H](O)COc1ccccc1 [sulprostone] | 4 | 0.6 |  |  |  |  |  |  |  |  |  |  |  |  |  | 
2 | O=C(O)CCC/C=C\C[C@H]1C(=O)C[C@@H](O)[C@@H]1/C=C/[C@@H](O)CCc1ccccc1 [17-phenyl trinor PGE2] | 14 | 21 |  |  |  |  |  |  |  |  |  |  |  |  |  | 
3 | CCCCC[C@@H](/C=C/[C@H]1[C@H](OC)CC(=O)[C@@H]1C/C=C\CCCC(=O)O)OC [ONO-AE-248] |  |  | 17 | 34 | 38 | No statistically significant differences | No statistically significant differences | No statistically significant differences | No statistically significant differences | did not affect core body temperature | did not affect | significantly and dose-dependently increased | significantly and dose-dependently increased | 1333 | prevented the forskolin-induced increase in cAMP | mild hyperthermia was induced
